Results: PubChem BioAssay (NCI)
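In this assay, cells in 96-well plates receive the compound at five concentrations for 48 hours. Endpoints are linearly interpolated between the surrounding concentrations. Abbreviation: GI50, concentration required for 50% inhibition of growth. At the TGI there is no net growth.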

Key:
Test in all cases: NCI-60 cell line screen, 48 h
NCI-H522 lung = tested on: NCI-H522 lung
NCI/ADR-RES ovarian = tested on: NCI/ADR-RES ovarian
OVCAR-3 ovarian = tested on: OVCAR-3 ovarian
OVCAR-4 ovarian = tested on: OVCAR-4 ovarian
OVCAR-8 ovarian = tested on: OVCAR-8 ovarian
RPMI-8226 leukemia = tested on: RPMI-8226 leukemia
RXF 393 renal = tested on: RXF 393 renal
SF-268 CNS = tested on: SF-268 CNS
SF-295 CNS = tested on: SF-295 CNS
SF-539 CNS = tested on: SF-539 CNS
SK-MEL-2 melanoma = tested on: SK-MEL-2 melanoma
SK-MEL-5 melanoma = tested on: SK-MEL-5 melanoma
SK-OV-3 ovarian = tested on: SK-OV-3 ovarian
SN12C renal = tested on: SN12C renal
SNB-19 CNS = tested on: SNB-19 CNS
SNB-75 CNS = tested on: SNB-75 CNS
SR leukemia = tested on: SR leukemia
SW-620 colon = tested on: SW-620 colon
T-47D breast = tested on: T-47D breast
TK-10 renal = tested on: TK-10 renal
UACC-257 melanoma = tested on: UACC-257 melanoma
UACC-62 melanoma = tested on: UACC-62 melanoma
UO-31 renal = tested on: UO-31 renal

## COC(=O)C1CCc2sc3ncnc(Nc4cn[nH]c4C(=O)Nc4ccc(CN5CCN(C)CC5)cc4)c3c21 (stereo unspecified)
NCI-H522 lung
  GI50: 304 nM
  TGI: 1630 nM
NCI/ADR-RES ovarian
  GI50: 3270 nM
  TGI: > 100000 nM
OVCAR-3 ovarian
  GI50: 334 nM
  TGI: 2040 nM
OVCAR-4 ovarian
  GI50: 906 nM
  TGI: > 100000 nM
OVCAR-8 ovarian
  GI50: 711 nM
  TGI: 75100 nM
RPMI-8226 leukemia
  GI50: 1410 nM
  TGI: 4210 nM
RXF 393 renal
  GI50: 244 nM
  TGI: 891 nM
SF-268 CNS
  GI50: 666 nM
  TGI: 2630 nM
SF-295 CNS
  GI50: 659 nM
  TGI: 17100 nM
SF-539 CNS
  GI50: 371 nM
  TGI: 1490 nM
SK-MEL-2 melanoma
  GI50: 692 nM
  TGI: 3480 nM
SK-MEL-5 melanoma
  GI50: 580 nM
  TGI: 2560 nM
SK-OV-3 ovarian
  GI50: 132 nM
  TGI: > 100000 nM
SN12C renal
  GI50: 345 nM
  TGI: > 100000 nM
SNB-19 CNS
  GI50: 712 nM
  TGI: > 100000 nM
SNB-75 CNS
  GI50: 68.4 nM
  TGI: 2870 nM
SR leukemia
  GI50: 285 nM
  TGI: 815 nM
SW-620 colon
  GI50: 354 nM
  TGI: 1580 nM
T-47D breast
  GI50: 957 nM
  TGI: 11600 nM
TK-10 renal
  GI50: 2310 nM
  TGI: 17800 nM
UACC-257 melanoma
  GI50: 1190 nM
  TGI: 2800 nM
UACC-62 melanoma
  GI50: 1360 nM
  TGI: 6590 nM
UO-31 renal
  GI50: 455 nM
  TGI: 9510 nM
